Measurements taken from patent US20250129069A1, “TRIAZOLO WRN INHIBITORS” (Nimbus Wadjet, Inc., priority 2023, published 2025).
Like-named read-outs stand apart in the source and are kept apart here.

How the values were obtained:
[1] = biological target: human Werner helicase (WRN, amino acids 517-1235 with L1074F point mutation) (Homo sapiens (Human), UniProt Q14191, L1074F); assay: WRN (BV08) ADP-Glo assay; assay type: biochemical; conditions: human WRN (aa 517-1235, L1074F), read-out: ADP-Glo_hWRN_IC50
Chain of human Werner helicase (WRN, amino acids 517-1235 with L1074F point mutation) (Q14191 other isoform, or with tags, fused parts or gaps L1074F (already in the parent)): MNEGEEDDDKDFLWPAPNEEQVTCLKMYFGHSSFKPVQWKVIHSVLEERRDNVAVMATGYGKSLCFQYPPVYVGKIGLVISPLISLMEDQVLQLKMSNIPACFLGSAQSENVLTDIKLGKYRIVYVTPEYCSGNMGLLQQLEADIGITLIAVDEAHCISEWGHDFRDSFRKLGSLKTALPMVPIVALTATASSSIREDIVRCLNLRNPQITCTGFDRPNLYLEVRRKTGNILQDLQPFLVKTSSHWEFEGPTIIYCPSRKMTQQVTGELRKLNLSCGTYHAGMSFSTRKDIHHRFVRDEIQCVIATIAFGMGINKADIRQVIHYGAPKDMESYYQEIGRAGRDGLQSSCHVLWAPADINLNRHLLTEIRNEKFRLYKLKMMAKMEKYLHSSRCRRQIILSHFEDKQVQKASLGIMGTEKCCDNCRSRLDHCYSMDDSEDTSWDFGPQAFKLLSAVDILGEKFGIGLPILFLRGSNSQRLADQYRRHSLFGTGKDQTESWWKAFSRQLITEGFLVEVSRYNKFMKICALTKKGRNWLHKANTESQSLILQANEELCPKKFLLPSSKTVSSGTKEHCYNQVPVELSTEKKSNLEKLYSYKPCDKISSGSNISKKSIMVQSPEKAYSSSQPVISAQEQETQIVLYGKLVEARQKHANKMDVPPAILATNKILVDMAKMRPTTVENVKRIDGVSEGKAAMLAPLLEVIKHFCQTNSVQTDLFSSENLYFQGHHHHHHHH
Summary of the method: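 Untagged WRN 517-1235 (L1074F), Sf9/baculovirus-expressed, 0.15 nM, preincubated 15 min with compound, then 5 μM ATP and 0.1 nM annealed DNA duplex added; 60 min at 25 °C in Bicine pH 7.5, 1 mM MgCl2, 1% DMSO. ADP-Glo luminescence; % inhibition vs DMSO and 20 μM NSC-617145 controls, four-parameter IC50 fit.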

[2] = system: p21 induction in HCT 116 cells; assay: p21 induction in cells (In-Cell Western, p21/GAPDH ratio); assay type: cell-based; conditions: 24 h compound incubation, read-out: p21_EC50
Summary of the method: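 HCT 116 cells treated 24 h at 37° C with 11-point, 2-fold dilutions typically from 10 μM, in duplicate. Fixed cells co-stained for p21 (800 nm) and GAPDH (700 nm) by In-Cell Western. p21/GAPDH ratio normalised between DMSO and reference WRN inhibitor controls, and EC50 obtained by nonlinear regression.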

Row | IC50 [1] | EC50 ([2]; Homo sapiens) | EC50 [2] | Structure (SMILES)
1 | > 500 nM | > 5000 nM | – | CCc1c(N2CCN(C(=O)c3ncnc(C)c3O)[C@@H]3CCC[C@@H]32)c(=O)c2nn(-c3ccnc(OC)c3)nc2n1CC(=O)NC12CC(C(C)C)(C1)C2 (relative stereo) [Compound I-77, rel-2-{6-[(4aR,7aS)-4-(5-hydroxy-6-methylpyrimidine-4-carbonyl)-octahydro-1H-cyclopenta[b]pyrazin-1-yl]-5-ethyl-2-(2-methoxypyridin-4-yl)-7-oxo-2H,4H,7H-[1,2,3]triazolo[4,5-b]pyridin-4-yl}-N-[3-(propan-2-yl)bicyclo[1.1.1]pentan-1-yl]acetamide]
2 | 5 to 50 nM | ≤ 500 nM | – | CCc1c(N2CCN(C(=O)c3nccnc3OC)[C@H]3CC[C@@H]32)c(=O)c2nn(C3=CCOCC3)nc2n1CC(=O)NC12CC(C(C)C)(C1)C2 [Compound I-200, 2-[2-(3,6-dihydro-2H-pyran-4-yl)-5-ethyl-6-[(1S,6S)-5-(3-methoxypyrazine-2-carbonyl)-2,5-diazabicyclo[4.2.0]octan-2-yl]-7-oxo-2H,4H,7H-[1,2,3]triazolo[4,5-b]pyridin-4-yl]-N-[3-(propan-2-yl)bicyclo[1.1.1]pentan-1-yl]acetamide]
3 | 5 to 50 nM | 500 to 2000 nM | – | CCc1c(N2CCN(C(=O)c3c(OC)ncc(C)c3O)CC2)c(=O)c2nn(-c3ccnc(OC)c3)nc2n1CC(=O)NC1CC2(CCC2)C1 [Compound I-125, 2-{5-ethyl-6-[4-(4-hydroxy-2-methoxy-5-methylpyridine-3-carbonyl)piperazin-1-yl]-2-(2-methoxypyridin-4-yl)-7-oxo-2H,4H,7H-[1,2,3]triazolo[4,5-b]pyridin-4-yl}-N-{spiro[3.3]heptan-2-yl}acetamide]
4 | 5 to 50 nM | 2000 to 5000 nM | – | CCc1c(N2CCN(C(=O)c3cccc(N4CCN(C)CC4)c3OC)[C@H]3CC[C@@H]32)c(=O)c2nn(C3=CCOCC3)nc2n1CC(=O)NC12CC(C(C)C)(C1)C2 [Compound I-169, 2-[2-(3,6-dihydro-2H-pyran-4-yl)-5-ethyl-6-[(1S,6S)-5-[2-methoxy-3-(4-methylpiperazin-1-yl)benzoyl]-2,5-diazabicyclo[4.2.0]octan-2-yl]-7-oxo-2H,4H,7H-[1,2,3]triazolo[4,5-b]pyridin-4-yl]-N-[3-(propan-2-yl)bicyclo[1.1.1]pentan-1-yl]acetamide]
5 | 5 to 50 nM | ≤ 500 nM | – | CCc1c(N2CCN(C(=O)c3ncnc(C)c3O)[C@H]3CC[C@@H]32)c(=O)c2nn(-c3cccc(C)n3)nc2n1CC(=O)NC12CC(C(C)C)(C1)C2 [Compound I-179, 2-{5-ethyl-6-[(1S,6S)-5-(5-hydroxy-6-methylpyrimidine-4-carbonyl)-2,5-diazabicyclo[4.2.0]octan-2-yl]-2-(6-methylpyridin-2-yl)-7-oxo-2H,4H,7H-[1,2,3]triazolo[4,5-b]pyridin-4-yl}-N-[3-(propan-2-yl)bicyclo[1.1.1]pentan-1-yl]acetamide]
6 | ≤ 5 nM | ≤ 500 nM | – | CCc1c(N2CCN(C(=O)c3c(OC)ncc(C)c3O)[C@H]3CC[C@@H]32)c(=O)c2nn(-c3ccnc(C)c3)nc2n1CC(=O)Nc1ccc(C(F)(F)F)cc1F [Compound I-95, 2-{5-ethyl-6-[(1S,6S)-5-(4-hydroxy-2-methoxy-5-methylpyridine-3-carbonyl)-2,5-diazabicyclo[4.2.0]octan-2-yl]-2-(2-methylpyridin-4-yl)-7-oxo-2H,4H,7H-[1,2,3]triazolo[4,5-b]pyridin-4-yl}-N-[2-fluoro-4-(trifluoromethyl)phenyl]acetamide]
7 | 5 to 50 nM | – | ≤ 500 nM | CCc1c(N2CCN(C(=O)c3ncnc(C)c3O)[C@H]3CC[C@@H]32)c(=O)c2nn(C3=CCO[C@H](C)C3)nc2n1CC(=O)NC12CC(C3CC3)(C1)C2 (single isomer, unassigned) [Compound I-181]
8 | 5 to 50 nM | ≤ 500 nM | – | CCc1c(N2CCN(C(=O)c3ccccc3OC)[C@H]3CC[C@@H]32)c(=O)c2nn(C3=CCOCC3)nc2n1CC(=O)NC12CC(C(C)C)(C1)C2 [Compound I-53, 2-[2-(3,6-dihydro-2H-pyran-4-yl)-5-ethyl-6-[(1S,6S)-5-(2-methoxybenzoyl)-2,5-diazabicyclo[4.2.0]octan-2-yl]-7-oxo-2H,4H,7H-[1,2,3]triazolo[4,5-b]pyridin-4-yl]-N-[3-(propan-2-yl)bicyclo[1.1.1]pentan-1-yl]acetamide]
9 | ≤ 5 nM | ≤ 500 nM | – | CCc1c(N2CCN(C(=O)c3ncnc(C)c3O)CC2)c(=O)c2nn(-c3ccnc(C)c3)nc2n1CC(=O)Nc1ccc(C(F)(F)F)cc1Cl [Compound I-7, N-(2-chloro-4-(trifluoromethyl)phenyl)-2-(5-ethyl-6-(4-(5-hydroxy-6-methylpyrimidine-4-carbonyl)piperazin-1-yl)-2-(2-methylpyridin-4-yl)-7-oxo-2,7-dihydro-4H-[1,2,3]triazolo[4,5-b]pyridin-4-yl)acetamide]
10 | ≤ 5 nM | ≤ 500 nM | – | CCc1c(N2CCN(C(=O)c3ncnc(C)c3O)[C@H]3CC[C@@H]32)c(=O)c2nn(-c3ccnc(OC)c3)nc2n1CC(=O)NC12CC(C3CCCC3)(C1)C2 [Compound I-195, N-{3-cyclopentylbicyclo[1.1.1]pentan-1-yl}-2-{5-ethyl-6-[(1S,6S)-5-(5-hydroxy-6-methylpyrimidine-4-carbonyl)-2,5-diazabicyclo[4.2.0]octan-2-yl]-2-(2-methoxypyridin-4-yl)-7-oxo-2H,4H,7H-[1,2,3]triazolo[4,5-b]pyridin-4-yl}acetamide]

Continued, compound first:

Row | Structure (SMILES) | IC50 [1] | EC50 ([2]; Homo sapiens) | EC50 [2]
11 | CCc1c(N2CCN(C(=O)c3c(O)ccc4ncoc34)CC2)c(=O)c2nn(-c3ccnc(OC)c3)nc2n1CC(=O)NC12CC(C(F)(F)F)(C1)C2 [Compound I-150, 2-{5-ethyl-6-[4-(6-hydroxy-1,3-benzoxazole-7-carbonyl)piperazin-1-yl]-2-(2-methoxypyridin-4-yl)-7-oxo-2H,4H,7H-[1,2,3]triazolo[4,5-b]pyridin-4-yl}-N-[3-(trifluoromethyl)bicyclo[1.1.1]pentan-1-yl]acetamide] | 5 to 50 nM | ≤ 500 nM | –
12 | CCc1c(N2CCN(C(=O)c3c(C#N)cncc3OC)[C@H]3CC[C@@H]32)c(=O)c2nn(C3=CCOCC3)nc2n1CC(=O)NC12CC(C(C)C)(C1)C2 [Compound I-168, 2-{6-[(1S,6S)-5-(3-cyano-5-methoxypyridine-4-carbonyl)-2,5-diazabicyclo[4.2.0]octan-2-yl]-2-(3,6-dihydro-2H-pyran-4-yl)-5-ethyl-7-oxo-2H,4H,7H-[1,2,3]triazolo[4,5-b]pyridin-4-yl}-N-[3-(propan-2-yl)bicyclo[1.1.1]pentan-1-yl]acetamide] | 5 to 50 nM | 500 to 2000 nM | –
13 | CCc1c(N2CCN(C(=O)c3c(OC)ncc(C)c3O)CC2)c(=O)c2nn(-c3ccnc(OC)c3)nc2n1CC(=O)NC1CC2(CCC(F)(F)CC2)C1 [Compound I-106, N-{7,7-difluorospiro[3.5]nonan-2-yl}-2-{5-ethyl-6-[4-(4-hydroxy-2-methoxy-5-methylpyridine-3-carbonyl)piperazin-1-yl]-2-(2-methoxypyridin-4-yl)-7-oxo-2H,4H,7H-[1,2,3]triazolo[4,5-b]pyridin-4-yl}acetamide] | 5 to 50 nM | > 5000 nM | –
14 | CCc1c(N2CCN(C(=O)c3ncncc3OC)[C@H]3CC[C@@H]32)c(=O)c2nn(C3=CCOCC3)nc2n1CC(=O)NC12CC(C(C)C)(C1)C2 [Compound I-167, 2-[2-(3,6-dihydro-2H-pyran-4-yl)-5-ethyl-6-[(1S,6S)-5-(5-methoxypyrimidine-4-carbonyl)-2,5-diazabicyclo[4.2.0]octan-2-yl]-7-oxo-2H,4H,7H-[1,2,3]triazolo[4,5-b]pyridin-4-yl]-N-[3-(propan-2-yl)bicyclo[1.1.1]pentan-1-yl]acetamide] | 5 to 50 nM | 500 to 2000 nM | –
15 | CCc1c(C2=CCN(C(=O)c3ncnc(C)c3O)CC2)c(=O)c2nn(-c3ccnc(OC)c3)nc2n1CC(=O)NC12CC(C(C)C)(C1)C2 [Compound I-79, 2-{5-ethyl-6-[1-(5-hydroxy-6-methylpyrimidine-4-carbonyl)-1,2,3,6-tetrahydropyridin-4-yl]-2-(2-methoxypyridin-4-yl)-7-oxo-2H,4H,7H-[1,2,3]triazolo[4,5-b]pyridin-4-yl}-N-[3-(propan-2-yl)bicyclo[1.1.1]pentan-1-yl]acetamide] | 5 to 50 nM | 500 to 2000 nM | –
16 | CCc1c(N2CCN(C(=O)c3ncnc(C)c3O)[C@H]3CC[C@@H]32)c(=O)c2nn(-c3ccccn3)nc2n1CC(=O)NC12CC(C(C)C)(C1)C2 [Compound I-22, 2-(5-ethyl-6-((1S,6S)-5-(5-hydroxy-6-methylpyrimidine-4-carbonyl)-2,5-diazabicyclo[4.2.0]octan-2-yl)-7-oxo-2-(pyridin-2-yl)-2,7-dihydro-4H-[1,2,3]triazolo[4,5-b]pyridin-4-yl)-N-(3-isopropylbicyclo[1.1.1]pentan-1-yl)acetamide] | 5 to 50 nM | ≤ 500 nM | –
17 | CCc1c(N2CCN(C(=O)c3ncnc(C)c3O)[C@H]3CC[C@@H]32)c(=O)c2nn(-c3ccnc(OC)c3)nc2n1CC(=O)NC1CC2(C1)CC2F (stereo partly drawn) [Compound I-69, 2-{5-ethyl-6-[(1S,6S)-5-(5-hydroxy-6-methylpyrimidine-4-carbonyl)-2,5-diazabicyclo[4.2.0]octan-2-yl]-2-(2-methoxypyridin-4-yl)-7-oxo-2H,4H,7H-[1,2,3]triazolo[4,5-b]pyridin-4-yl}-N-{1-fluorospiro[2.3]hexan-5-yl}acetamide] | 5 to 50 nM | 500 to 2000 nM | –
